Assay type in all cases: in vitro ADME
Data set [1] addresses CYP2C8 (Homo sapiens (Human), UniProt P10632). Put plainly: CYP inhibition assay in mixed human liver microsomes. As to conditions: mixed (pooled) human liver microsomes, read-out: Inhibition rate % CYP2C8. How it is done:
The inhibitory effects of the compounds on seven enzymes, i.e., CYP1A2, CYP2C9, CYP2C19, CYP2D6, CYP3A4 (midazolam), CYP2B6, and CYP2C8, were evaluated at a concentration of 10 μM. Mixed human liver microsomes, which were previously stored in a −80° C. refrigerator before use, were taken out and thawed in a water bath at 37° C. before use, and placed on ice for further operation. 100 μL of microsome working solution was taken, and added with 2 μL of test product or positive inhibitor working solution. 2 μL of solvent was added to the solvent control. The mixture was pre-incubated in a water bath at 37° C. for 10 minutes. After preincubation, 98 μL of NADPH regeneration solution was added to all samples to initiate the reaction. Then, the samples were put back into the water bath and incubated for a period of time. The reaction was quenched with 200 μL of stop solution. The plate was centrifuged at 3,220 g for 10 minutes, 100 μL of supernatant was transferred, and 100 μL of water was added and mixed well to the assay plate for LC/MS/MS analysis.
In general terms: Microsomes from liver hold many membrane-bound enzymes, among them those of drug oxidation.

A short description of data set [2]: Free plasma protein binding (PPB) assay, equilibrium dialysis. As to conditions: dialysis 6 hours at 37° C. On the procedure: The dried dialysis membrane was soaked in ultrapure water for 1 hour, then soaked in 20% ethanol for 20 minutes, and then rinsed with ultrapure water for 2 to 3 times. Finally, the dried dialysis membrane was soaked in ultrapure water for 20 minutes for later use. The frozen plasma was thawed in a water bath at 37° C. for about 20 minutes. pH value of the plasma was measured after thawing was complete, and was adjusted to 7.4 with 1% phosphoric acid solution or 0.1M sodium hydroxide solution. […] The pretreated dialysis membrane was assembled into the dialysis plate according to product instructions, and 100 μL of receiving solution (100 mM phosphate buffer solution plus 0.002% Tween 80) was added to one side of the permeable membrane in each dialysis well. 20 μL of each of the final solution of the test compound and the final solution of the control compound were taken in a 96-well sample plate, two duplicate samples were made, and T0 sample was obtained, which was stored in a −20° C. refrigerator. Another 100 μL of each of the above-mentioned final solutions were taken to the other side of the membrane in the dialysis device, two duplicate samples were made, and incubated at 37° C. with constant shaking for 6 hours. After 6 hours of incubation, 20 μL of each of the dialyzed receiving solution and the administered plasma were taken, two duplicate samples were made, and sample A and sample B were obtained. Corresponding blank plasma or receiving solution of corresponding volume were added to sample B and sample A, respectively, allowing the volume ratio of plasma to buffer in each sample well to be 1:1. 300 μL of sample-containing internal standard acetonitrile solution was added to all the sample wells. The mixture was mixed well, and centrifuged at 5,500×g for 10 minutes. 150 μL of corresponding ultrapure water was added to the corresponding sample wells of the 96-well sample plate. 150 μL of the supernatant was taken into the sample wells, and mixed well. Then, LC/MS/MS analysis was performed. The calculation formula of fu is: […]
where: CR: peak area ratio measured in the receiving chamber well CD: peak area ratio measured in the supply chamber well.
In general terms: In equilibrium dialysis only unbound substance equilibrates across the membrane.

The nature of data set [3]: Liver microsome stability assay. Conditions: Rat liver microsomes; read-out: T1/2 (min) Rat.
Data set [4] can be described thus: Liver microsome stability assay. Conditions: Mouse liver microsomes; read-out: T1/2 (min) Mouse.
A short description of data set [5]: Liver microsome stability assay. Conditions: dog; Canine liver microsomes; read-out: T1/2 (min) Canine.
Data set [6] concerns Caco-2 cells. The data set is described as follows: Bidirectional permeability study in CACO-2 cells. As to conditions: Caco-2 monolayer, 2.00 μM, 2 hours, pH 7.40. How it is done: Caco-2 cells were inoculated onto polyethylene membrane (PET) in 96-well inserted plates at a rate of 1×10^5 cells/cm^2, and the medium was changed every 4 to 5 days until day 21 to 28, to form a fused cell monolayer. The transport buffer in the assay was HBSS and 10.0 mM HEPES, with a pH of 7.40±0.05. The test compounds were subjected to a bidirectional test at 2.00 μM in the presence and absence of GF120918 (10.0 μM). Digoxin was subjected to a bidirectional test at 10.0 μM in the presence and absence of GF120918 (10.0 μM), while Nadolol and Metoprolol were subjected to a test from direction A to direction B at 2.00 μM in the absence of GF120918 (10.0 μM). The above tests were performed in duplicate. The final concentration of DMSO was adjusted to be lower than 1%. The plate was incubated in a CO2 incubator at 37° C.±1° C. for 2 hours, and 5% CO2 was added under saturated humidity without shaking. All the samples, after being mixed with acetonitrile containing internal standard, were centrifuged at 3,200 g for 10 minutes. […] The concentrations of the test compounds and control compounds in the starting solution, the donor solution, and the acceptor solution were quantified by LC-MS/MS based on a peak area ratio of the analyte to the internal standard.
After the transport assay, the integrity of the Caco-2 cell monolayer was determined using Lucifer Yellow Exclusion Assay.
On the technique in general: Passage across Caco-2 layers is used to estimate intestinal permeability.

Molecules are shown by their SMILES. Like-named read-outs stand apart in the source and are kept apart here.

Sequence of CYP2C8 (P10632 whole entry): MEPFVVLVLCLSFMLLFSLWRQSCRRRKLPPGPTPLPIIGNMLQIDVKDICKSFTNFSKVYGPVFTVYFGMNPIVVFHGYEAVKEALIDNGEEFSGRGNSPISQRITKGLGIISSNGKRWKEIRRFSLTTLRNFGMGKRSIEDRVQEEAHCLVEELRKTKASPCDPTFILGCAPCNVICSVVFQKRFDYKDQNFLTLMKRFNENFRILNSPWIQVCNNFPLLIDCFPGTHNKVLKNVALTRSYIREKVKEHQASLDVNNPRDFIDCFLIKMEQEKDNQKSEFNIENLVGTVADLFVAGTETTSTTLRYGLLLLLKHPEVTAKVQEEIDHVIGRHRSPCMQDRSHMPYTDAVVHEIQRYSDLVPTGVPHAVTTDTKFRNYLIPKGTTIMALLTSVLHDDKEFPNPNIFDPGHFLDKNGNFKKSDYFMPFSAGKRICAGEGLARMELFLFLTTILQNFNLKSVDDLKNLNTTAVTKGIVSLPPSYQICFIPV

As usually defined, the inhibition is the drop in the measured response relative to a control, in per cent. `CCCCOC(=O)NS(=O)(=O)c1sc(CC(C)C)cc1-c1ccc(Cn2ccnc2)cc1` [Control Compound I, reference compound]: in data set [1], the inhibition at 10 µM came out at 97.5%. For the same compound, the fraction unbound at 6 h, 1 μM stood at 0.0023 in data set [2] (dog, pH 7.4, Canine plasma, read-out: fu % Canine); 0.0006 in data set [2] (pH 7.4, Human plasma, read-out: fu % Human); 0.0009 in data set [2] (pH 7.4, Mouse plasma, read-out: fu % Mouse); 0.0005 in data set [2] (pH 7.4, Rat plasma, read-out: fu % Rat). Besides, the half-life at 1 μM in data set [3] was 22.6 min; in data set [4], 49.1 min; in data set [5] it was 224 min. Also, the “Papp mean value (10^−6 cm/s) A to B” value in data set [6] was 0.381 10^−6 cm/s.

Source of the values: patent US20250214978A1, “AT2R AGONIST” (WUHAN HUMANWELL INNOVATIVE DRUG RESEARCH AND DEVELOPMENT …, priority 2022, published 2025).
